Data published in US9340590B2 (priority 2011, dated 2016).
Like-named read-outs stand apart in the source and are kept apart here. Positions of bridges follow the written chain, without caps; N, C: chain ends. Residues, ends and D or L forms follow the SMILES beside them.

Key:
Assay in all cases: cell-based
hNav1.3 = hNav1.3 (Homo sapiens, UniProt Q9NY46); settings: IonWorks Quattro, read-out: IWQ Use Nav1.3
hNav1.5 = hNav1.5 (Homo sapiens, UniProt Q14524); settings: IonWorks Quattro, read-out: IWQ Use Nav1.5
hNav1.7 = hNav1.7 (Homo sapiens, UniProt Q15858); type: cell-based
[1] = clamped to −110 mV, depolarized to −10 mV, 5 min after compound, n=2
[2] = IonWorks Quattro, use-dependent block, hNav1.7, read-out: IWQ Use Nav1.7

Chain of hNav1.5 (Q14524 whole entry, looked up): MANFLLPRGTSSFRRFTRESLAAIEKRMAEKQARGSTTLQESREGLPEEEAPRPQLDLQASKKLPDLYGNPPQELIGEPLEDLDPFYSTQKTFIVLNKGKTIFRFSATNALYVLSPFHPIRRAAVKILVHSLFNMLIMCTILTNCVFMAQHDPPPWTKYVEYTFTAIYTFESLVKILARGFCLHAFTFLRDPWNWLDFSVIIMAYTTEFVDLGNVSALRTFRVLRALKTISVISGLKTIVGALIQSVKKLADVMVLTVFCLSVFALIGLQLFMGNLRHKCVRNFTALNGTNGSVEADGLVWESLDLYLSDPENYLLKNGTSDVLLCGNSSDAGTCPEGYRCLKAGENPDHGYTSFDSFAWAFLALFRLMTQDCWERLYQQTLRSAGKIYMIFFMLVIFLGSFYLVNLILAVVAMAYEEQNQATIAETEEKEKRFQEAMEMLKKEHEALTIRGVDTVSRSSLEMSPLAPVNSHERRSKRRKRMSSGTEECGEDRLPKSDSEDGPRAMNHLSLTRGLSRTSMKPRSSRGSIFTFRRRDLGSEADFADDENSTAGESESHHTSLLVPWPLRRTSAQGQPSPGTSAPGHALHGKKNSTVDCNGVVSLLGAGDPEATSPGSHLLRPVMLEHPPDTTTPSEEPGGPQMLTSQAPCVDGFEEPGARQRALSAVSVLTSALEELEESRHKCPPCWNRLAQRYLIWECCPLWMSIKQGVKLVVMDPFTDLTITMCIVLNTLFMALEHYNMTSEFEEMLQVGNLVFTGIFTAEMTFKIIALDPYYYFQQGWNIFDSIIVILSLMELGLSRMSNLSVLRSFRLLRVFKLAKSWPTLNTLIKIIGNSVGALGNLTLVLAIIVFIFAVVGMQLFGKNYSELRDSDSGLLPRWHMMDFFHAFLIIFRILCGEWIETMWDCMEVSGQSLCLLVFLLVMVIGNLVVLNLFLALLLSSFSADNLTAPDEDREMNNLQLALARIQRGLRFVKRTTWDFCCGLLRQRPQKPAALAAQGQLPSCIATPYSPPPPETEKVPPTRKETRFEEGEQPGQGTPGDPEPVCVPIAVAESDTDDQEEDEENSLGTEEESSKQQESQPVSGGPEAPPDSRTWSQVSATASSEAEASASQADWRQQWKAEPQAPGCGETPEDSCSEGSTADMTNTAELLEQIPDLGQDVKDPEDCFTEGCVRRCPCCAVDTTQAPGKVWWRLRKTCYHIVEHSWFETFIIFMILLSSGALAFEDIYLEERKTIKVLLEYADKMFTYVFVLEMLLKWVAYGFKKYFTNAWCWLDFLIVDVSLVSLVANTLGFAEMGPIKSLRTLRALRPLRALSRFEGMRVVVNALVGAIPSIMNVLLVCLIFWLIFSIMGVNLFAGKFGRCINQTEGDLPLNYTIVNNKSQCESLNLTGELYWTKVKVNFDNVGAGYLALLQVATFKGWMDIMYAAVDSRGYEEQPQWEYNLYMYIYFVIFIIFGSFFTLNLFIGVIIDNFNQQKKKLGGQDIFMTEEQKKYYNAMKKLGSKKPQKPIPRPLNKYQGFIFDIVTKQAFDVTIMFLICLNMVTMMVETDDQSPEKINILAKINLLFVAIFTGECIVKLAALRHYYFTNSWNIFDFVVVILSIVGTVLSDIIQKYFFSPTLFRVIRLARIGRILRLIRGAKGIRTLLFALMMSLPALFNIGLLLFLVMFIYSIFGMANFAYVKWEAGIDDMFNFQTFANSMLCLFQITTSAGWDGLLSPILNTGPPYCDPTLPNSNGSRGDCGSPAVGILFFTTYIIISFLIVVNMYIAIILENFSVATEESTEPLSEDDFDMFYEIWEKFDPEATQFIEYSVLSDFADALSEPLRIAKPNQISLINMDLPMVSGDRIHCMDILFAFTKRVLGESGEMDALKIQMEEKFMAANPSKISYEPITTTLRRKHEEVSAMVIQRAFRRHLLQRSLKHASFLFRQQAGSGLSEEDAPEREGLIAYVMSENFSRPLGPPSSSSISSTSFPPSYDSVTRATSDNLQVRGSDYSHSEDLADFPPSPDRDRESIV
Chain of hNav1.3 (Q9NY46 whole entry, looked up): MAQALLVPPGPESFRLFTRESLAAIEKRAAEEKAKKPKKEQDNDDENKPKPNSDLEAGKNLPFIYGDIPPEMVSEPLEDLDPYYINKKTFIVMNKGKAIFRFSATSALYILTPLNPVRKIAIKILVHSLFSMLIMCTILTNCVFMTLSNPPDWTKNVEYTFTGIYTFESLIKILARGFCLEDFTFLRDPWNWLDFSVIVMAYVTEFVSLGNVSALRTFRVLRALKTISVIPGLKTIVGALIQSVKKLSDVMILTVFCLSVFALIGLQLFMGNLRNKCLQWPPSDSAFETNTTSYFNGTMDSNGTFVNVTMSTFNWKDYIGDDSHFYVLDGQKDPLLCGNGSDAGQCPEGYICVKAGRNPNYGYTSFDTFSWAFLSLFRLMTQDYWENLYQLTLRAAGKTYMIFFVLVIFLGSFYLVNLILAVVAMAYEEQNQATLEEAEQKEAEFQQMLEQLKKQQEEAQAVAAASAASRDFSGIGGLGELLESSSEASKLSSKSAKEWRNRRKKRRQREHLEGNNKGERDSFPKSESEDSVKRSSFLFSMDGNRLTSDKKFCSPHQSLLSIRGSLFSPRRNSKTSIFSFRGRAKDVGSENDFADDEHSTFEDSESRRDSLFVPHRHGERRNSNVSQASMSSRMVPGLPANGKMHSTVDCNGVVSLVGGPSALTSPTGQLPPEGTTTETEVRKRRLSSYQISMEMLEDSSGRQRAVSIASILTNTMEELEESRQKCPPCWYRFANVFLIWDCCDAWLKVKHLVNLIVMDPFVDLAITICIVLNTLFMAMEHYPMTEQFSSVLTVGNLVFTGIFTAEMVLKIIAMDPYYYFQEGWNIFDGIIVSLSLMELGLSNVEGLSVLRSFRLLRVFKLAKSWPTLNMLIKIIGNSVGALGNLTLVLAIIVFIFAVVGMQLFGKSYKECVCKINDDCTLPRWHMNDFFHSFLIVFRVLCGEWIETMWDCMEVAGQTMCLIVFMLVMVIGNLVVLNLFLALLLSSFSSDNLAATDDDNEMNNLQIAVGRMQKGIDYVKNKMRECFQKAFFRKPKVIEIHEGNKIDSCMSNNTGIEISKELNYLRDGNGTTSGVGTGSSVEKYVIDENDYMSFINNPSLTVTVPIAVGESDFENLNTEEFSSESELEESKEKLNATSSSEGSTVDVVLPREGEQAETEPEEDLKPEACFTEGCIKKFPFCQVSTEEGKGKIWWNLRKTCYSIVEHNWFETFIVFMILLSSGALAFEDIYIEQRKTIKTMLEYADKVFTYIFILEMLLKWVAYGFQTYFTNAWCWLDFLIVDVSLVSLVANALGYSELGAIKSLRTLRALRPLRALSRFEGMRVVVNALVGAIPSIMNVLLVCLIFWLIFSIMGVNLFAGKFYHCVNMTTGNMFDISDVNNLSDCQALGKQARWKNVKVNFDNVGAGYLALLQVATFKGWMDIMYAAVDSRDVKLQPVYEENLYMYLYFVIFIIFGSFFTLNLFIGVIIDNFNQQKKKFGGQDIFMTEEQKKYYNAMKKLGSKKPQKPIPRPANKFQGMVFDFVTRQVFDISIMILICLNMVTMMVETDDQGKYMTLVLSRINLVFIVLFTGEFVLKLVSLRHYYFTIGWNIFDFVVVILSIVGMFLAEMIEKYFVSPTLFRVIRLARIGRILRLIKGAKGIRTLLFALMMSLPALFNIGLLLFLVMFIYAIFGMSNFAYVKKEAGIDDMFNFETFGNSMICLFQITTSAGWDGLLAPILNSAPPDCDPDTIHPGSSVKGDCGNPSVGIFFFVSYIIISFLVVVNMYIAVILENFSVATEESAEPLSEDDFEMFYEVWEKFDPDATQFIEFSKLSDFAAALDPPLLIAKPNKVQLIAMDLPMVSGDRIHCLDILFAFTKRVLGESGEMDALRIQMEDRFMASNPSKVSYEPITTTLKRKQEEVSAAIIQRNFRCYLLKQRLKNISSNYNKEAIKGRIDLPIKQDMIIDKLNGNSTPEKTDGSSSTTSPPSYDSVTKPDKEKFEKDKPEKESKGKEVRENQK

CC[C@H](C)[C@@H]1NC(=O)[C@@H]2CSSC[C@@H]3NC(=O)[C@H](C(C)C)NC(=O)[C@H](CC(C)C)NC(=O)[C@H](CC(N)=O)NC(=O)[C@@H]4CCCN4C(=O)[C@H](CCCNC(=N)N)NC(=O)[C@H](CSSC[C@H](NC(=O)[C@@H](N)CC(=O)O)C(=O)N[C@@H](CC(C)C)C(=O)NCC(=O)N[C@@H](Cc4cn(C)c5ccccc45)C(=O)N[C@@H](CCSC)C(=O)N[C@@H](CCCNC(=N)N)C(=O)N[C@@H](CCCCN)C(=O)N2)NC(=O)[C@H](CSSC[C@@H](C(=O)N[C@@H](CCCCN)C(=O)N[C@@H](Cc2ccc(O)cc2)C(=O)N[C@H](C(=O)N[C@@H](Cc2ccccc2)C(N)=O)C(C)C)NC(=O)[C@H](Cc2c[nH]c4ccccc24)NC(=O)[C@H](CCCCN)NC(=O)[C@H](Cc2c[nH]cn2)NC(=O)[C@H]([C@@H](C)O)NC(=O)[C@H](CCCNC(=N)N)NC(=O)[C@H](CO)NC3=O)NC(=O)[C@H](CCCCN)NC(=O)[C@H](CC(=O)O)NC(=O)[C@H](CC(N)=O)NC(=O)[C@H](CC(=O)O)NC(=O)[C@@H]2CCCN2C1=O [SEQ ID NO: 264]
IC50 (hNav1.3; [1]): 90 nM | IC50 (hNav1.5; [1]): 8170 nM | IC50 (hNav1.7; IonWorks Quattro, clamped to −110 mV, depolarized to −10 mV, 5 min after compound, n=2, read-out: IWQ Use Nav1.7): 90 nM

CC[C@H](C)[C@@H]1NC(=O)[C@@H]2CSSC[C@@H]3NC(=O)[C@H](C(C)C)NC(=O)[C@H](CC(C)C)NC(=O)[C@H](CC(N)=O)NC(=O)[C@@H]4CCCN4C(=O)[C@H](CCCNC(=N)N)NC(=O)[C@H](CSSC[C@H](NC(=O)[C@@H](N)CC(=O)O)C(=O)N[C@@H](CC(C)C)C(=O)NCC(=O)N[C@@H](Cc4ccccc4)C(=O)N[C@@H](CCSC)C(=O)N[C@@H](CCCNC(=N)N)C(=O)N[C@@H](CCCCN)C(=O)N2)NC(=O)[C@H](CSSC[C@@H](C(=O)N[C@@H](CCCCN)C(=O)N[C@@H](Cc2ccc(O)cc2)C(=O)N[C@H](C(=O)N[C@@H](Cc2ccccc2)C(N)=O)C(C)C)NC(=O)[C@H](Cc2c[nH]c4ccccc24)NC(=O)[C@H](CCCCN)NC(=O)[C@H](Cc2c[nH]cn2)NC(=O)[C@H](CC(N)=O)NC(=O)[C@H](CCCNC(=N)N)NC(=O)[C@H](CO)NC3=O)NC(=O)[C@H](CCCCN)NC(=O)[C@H](CC(=O)O)NC(=O)[C@H](CC(N)=O)NC(=O)[C@H](CC(=O)O)NC(=O)[C@@H]2CCCN2C1=O [compound 342] (H-DCLGFMRKCIPDNDKCCRPNLVCSRNHKWCKYVF-NH2; disulfide 2-17, 9-23, 16-30)
IC50 (hNav1.3; Table 22, use, […]): 100 nM | IC50 (hNav1.5; Table 22, use, […]): 6290 nM | IC50 (hNav1.7; Table 22, IonWorks Quattro, use, […], read-out: IWQ Use Nav1.7): 90 nM

CC[C@H](C)[C@@H]1NC(=O)[C@@H]2CSSC[C@@H]3NC(=O)[C@H](C(C)C)NC(=O)[C@H](CC(C)C)NC(=O)[C@H](CC(N)=O)NC(=O)[C@@H]4CCCN4C(=O)[C@H](CCCNC(=N)N)NC(=O)[C@H](CSSC[C@H](NC(=O)[C@@H](N)CC(=O)O)C(=O)N[C@@H](CC(C)C)C(=O)NCC(=O)N[C@@H](C4CCCCC4)C(=O)N[C@@H](CCSC)C(=O)N[C@@H](CCCNC(=N)N)C(=O)N[C@@H](CCCCN)C(=O)N2)NC(=O)[C@H](CSSC[C@@H](C(=O)N[C@@H](CCCCN)C(=O)N[C@@H](Cc2ccc(O)cc2)C(=O)N[C@H](C(=O)N[C@@H](Cc2ccccc2)C(N)=O)C(C)C)NC(=O)[C@H](Cc2c[nH]c4ccccc24)NC(=O)[C@H](CCCCN)NC(=O)[C@H](Cc2cnc[nH]2)NC(=O)[C@H]([C@@H](C)O)NC(=O)[C@H](CCCNC(=N)N)NC(=O)[C@H](CO)NC3=O)NC(=O)[C@H](CCCCN)NC(=O)[C@H](CC(=O)O)NC(=O)[C@H](CC(N)=O)NC(=O)[C@H](CC(=O)O)NC(=O)[C@@H]2CCCN2C1=O [compound 684]
IC50 (hNav1.3; use-dependent protocol, hNav1.3): 360 nM | IC50 (hNav1.5; use-dependent protocol, hNav1.5): > 5000 nM | IC50 (hNav1.7; IonWorks Quattro, use-dependent protocol, hNav1.7, read-out: IWQ Use Nav1.7): 130 nM

CC[C@H](C)[C@@H]1NC(=O)[C@@H]2CSSC[C@@H]3NC(=O)[C@H](C(C)C)NC(=O)[C@H](CC(C)C)NC(=O)[C@H](CC(N)=O)NC(=O)[C@@H]4CCCN4C(=O)[C@H](CCCNC(=N)N)NC(=O)[C@H](CSSC[C@H](NC(=O)[C@H](CC(=O)O)NC(=O)[C@H](CO)NC(=O)CN)C(=O)N[C@@H](CC(C)C)C(=O)NCC(=O)N[C@@H](C)C(=O)N[C@@H](Cc4ccccc4)C(=O)N[C@@H](CCCNC(=N)N)C(=O)N[C@@H](CCCCN)C(=O)N2)NC(=O)[C@H](CSSC[C@@H](C(=O)N[C@@H](CCCCN)C(=O)N[C@@H](Cc2ccc(O)cc2)C(=O)N[C@H](C(=O)N[C@@H](Cc2ccccc2)C(N)=O)C(C)C)NC(=O)[C@H](Cc2c[nH]c4ccccc24)NC(=O)[C@H](CCCNC(=N)N)NC(=O)[C@H](Cc2c[nH]cn2)NC(=O)[C@H]([C@@H](C)O)NC(=O)[C@H](CCCNC(=N)N)NC(=O)[C@H](CO)NC3=O)NC(=O)[C@H](CCCCN)NC(=O)[C@H](CC(=O)O)NC(=O)[C@H](CC(N)=O)NC(=O)[C@H](CC(=O)O)NC(=O)[C@@H]2CCCN2C1=O [compound 811] (H-GSDCLGAFRKCIPDNDKCCRPNLVCSRTHRWCKYVF-NH2; disulfide 4-19, 11-25, 18-32)
IC50 (hNav1.3; use-dependent block, hNav1.3): 300 nM | IC50 (hNav1.5; use-dependent block, hNav1.5): > 5000 nM | IC50 (hNav1.7; [2]): 300 nM

CC[C@H](C)[C@@H]1NC(=O)[C@@H]2CSSC[C@@H]3NC(=O)[C@H](C(C)C)NC(=O)[C@H](CC(C)C)NC(=O)[C@H](CC(N)=O)NC(=O)[C@@H]4CCCN4C(=O)[C@H](CCCNC(=N)N)NC(=O)[C@H](CSSC[C@H](NC(=O)[C@@H](N)CC(=O)O)C(=O)N[C@@H](CC(C)C)C(=O)NCC(=O)N[C@@H](Cc4ccccc4)C(=O)N[C@@H](CCSC)C(=O)N[C@@H](CCCNC(=N)N)C(=O)N[C@@H](CCCCN)C(=O)N2)NC(=O)[C@H](CSSC[C@@H](C(=O)N[C@@H](CCCCN)C(=O)N[C@@H](Cc2ccc(O)cc2)C(=O)N[C@H](C(=O)N[C@@H](Cc2ccccc2)C(N)=O)C(C)C)NC(=O)[C@H](Cc2c[nH]c4ccccc24)NC(=O)[C@H](CCCCN)NC(=O)[C@H](C)NC(=O)[C@H]([C@@H](C)O)NC(=O)[C@H](CCCNC(=N)N)NC(=O)[C@H](CO)NC3=O)NC(=O)[C@H](CCCCN)NC(=O)[C@H](CC(=O)O)NC(=O)[C@H](CC(N)=O)NC(=O)[C@H](CC(=O)O)NC(=O)[C@@H]2CCCN2C1=O [compound 11] (H-DCLGFMRKCIPDNDKCCRPNLVCSRTAKWCKYVF-NH2; disulfide 2-17, 9-23, 16-30)
IC50 (hNav1.3; Table 23, use, […]): 1150 nM | IC50 (hNav1.5; Table 23, use, […]): 14700 nM | IC50 (hNav1.7): 950 nM

CC[C@H](C)[C@@H]1NC(=O)[C@@H]2CSSC[C@@H]3NC(=O)[C@H](C(C)C)NC(=O)[C@H](CC(C)C)NC(=O)[C@H](CC(N)=O)NC(=O)[C@@H]4CCCN4C(=O)[C@H](CCCNC(=N)N)NC(=O)[C@H](CSSC[C@H](NC(=O)[C@@H](N)CC(=O)O)C(=O)N[C@@H](CC(C)C)C(=O)NCC(=O)N[C@@H](C)C(=O)N[C@@H](CCSC)C(=O)N[C@@H](CCCNC(=N)N)C(=O)N[C@@H](CCCCN)C(=O)N2)NC(=O)[C@H](CSSC[C@@H](C(=O)N[C@@H](CCCCN)C(=O)N[C@@H](Cc2ccc(O)cc2)C(=O)N[C@H](C(=O)N[C@@H](Cc2ccccc2)C(=O)N[C@@H](CCC(=O)O)C(N)=O)C(C)C)NC(=O)[C@H](Cc2c[nH]c4ccccc24)NC(=O)[C@H](CCCCN)NC(=O)[C@H](Cc2c[nH]cn2)NC(=O)[C@H]([C@@H](C)O)NC(=O)[C@H](CCCNC(=N)N)NC(=O)[C@H](CO)NC3=O)NC(=O)[C@H](CCCCN)NC(=O)[C@H](CC(=O)O)NC(=O)[C@H](CC(N)=O)NC(=O)[C@H](CC(=O)O)NC(=O)[C@@H]2CCCN2C1=O [compound 790] (H-DCLGAMRKCIPDNDKCCRPNLVCSRTHKWCKYVFE-NH2; disulfide 2-17, 9-23, 16-30)
IC50 (hNav1.3; use-dependent block, hNav1.3): > 5000 nM | IC50 (hNav1.5; use-dependent block, hNav1.5): 28500 nM | IC50 (hNav1.7; [2]): > 5000 nM

CC[C@H](C)[C@@H]1NC(=O)[C@@H]2CSSC[C@@H]3NC(=O)[C@H](C(C)C)NC(=O)[C@H](CC(C)C)NC(=O)[C@H](CC(N)=O)NC(=O)[C@@H]4CCCN4C(=O)[C@H](CCCNC(=N)N)NC(=O)[C@H](CSSC[C@H](NC(=O)[C@@H](N)CC(=O)O)C(=O)N[C@@H](CC(C)C)C(=O)NCC(=O)N[C@@H](Cc4ccccc4)C(=O)N[C@@H](CCSC)C(=O)N[C@@H](CCCNC(=N)N)C(=O)N[C@@H](CCCCN)C(=O)N2)NC(=O)[C@H](CSSC[C@@H](C(=O)N[C@@H](CCCCN)C(=O)N[C@@H](Cc2ccc(O)cc2)C(=O)N[C@@H](CCC(N)=O)C(=O)N[C@@H](Cc2ccccc2)C(N)=O)NC(=O)[C@H](Cc2c[nH]c4ccccc24)NC(=O)[C@H](CCCCN)NC(=O)[C@H](Cc2c[nH]cn2)NC(=O)[C@H]([C@@H](C)O)NC(=O)[C@H](CCCNC(=N)N)NC(=O)[C@H](CO)NC3=O)NC(=O)[C@H](CCCCN)NC(=O)[C@H](CC(=O)O)NC(=O)[C@H](CC(N)=O)NC(=O)[C@H](CC(=O)O)NC(=O)[C@@H]2CCCN2C1=O [compound 95] (H-DCLGFMRKCIPDNDKCCRPNLVCSRTHKWCKYQF-NH2; disulfide 2-17, 9-23, 16-30)
IC50 (hNav1.3; Table 26, use, […]): 110 nM | IC50 (hNav1.5; Table 26, use, […]): 10600 nM | IC50 (hNav1.7; Table 26, IonWorks Quattro, use, […], read-out: IWQ Use Nav1.7): 120 nM
